Where two headings read alike, the source gives them in different places. Peptide text beside a SMILES is read from it.
Experiments:
[1] = test system: creatine kinase (CK) specific activity in rat tissues; assay: Stimulation of creatine kinase specific activity in rat tissues in vivo
Protocol: The control goups received 0.5 ml saline containing 0.5% ethanol or tris-saline alone. The various organs were assayed for CK activity four hours after treatment.

[2] = biological target: ER β (Homo sapiens, UniProt Q92731); assay: Receptor binding assay for estrogen receptor beta; details: for IC50 to ERβ / IC50: Table 5; for recognition of / binding activity to estrogen receptor β: summary of Tables 3 to 5; for IC50: read-out: IC50 to ERβ
ER β, sequence (Q92731 whole entry, species assumed): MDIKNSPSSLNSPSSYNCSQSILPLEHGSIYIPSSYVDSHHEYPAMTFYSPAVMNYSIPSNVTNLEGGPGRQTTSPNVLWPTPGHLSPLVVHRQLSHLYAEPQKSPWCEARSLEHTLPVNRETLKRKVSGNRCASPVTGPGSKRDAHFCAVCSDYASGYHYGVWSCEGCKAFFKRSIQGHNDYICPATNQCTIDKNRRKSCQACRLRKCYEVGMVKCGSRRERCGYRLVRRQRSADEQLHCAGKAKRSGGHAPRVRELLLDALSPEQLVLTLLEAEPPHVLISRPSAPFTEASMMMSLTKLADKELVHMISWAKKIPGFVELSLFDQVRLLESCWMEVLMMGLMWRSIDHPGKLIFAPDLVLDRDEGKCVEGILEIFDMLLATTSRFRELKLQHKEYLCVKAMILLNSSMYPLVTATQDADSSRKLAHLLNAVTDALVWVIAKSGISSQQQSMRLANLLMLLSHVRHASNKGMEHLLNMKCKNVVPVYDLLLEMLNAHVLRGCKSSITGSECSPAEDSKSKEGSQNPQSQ

[3] = biological target: T1, ER α (Homo sapiens, UniProt P03372); assay: Receptor binding assay for estrogen receptor alpha; details: for recognition of / binding activity to estrogen receptor α: summary of Tables 3 to 5
T1 sequence (P03372 1-595): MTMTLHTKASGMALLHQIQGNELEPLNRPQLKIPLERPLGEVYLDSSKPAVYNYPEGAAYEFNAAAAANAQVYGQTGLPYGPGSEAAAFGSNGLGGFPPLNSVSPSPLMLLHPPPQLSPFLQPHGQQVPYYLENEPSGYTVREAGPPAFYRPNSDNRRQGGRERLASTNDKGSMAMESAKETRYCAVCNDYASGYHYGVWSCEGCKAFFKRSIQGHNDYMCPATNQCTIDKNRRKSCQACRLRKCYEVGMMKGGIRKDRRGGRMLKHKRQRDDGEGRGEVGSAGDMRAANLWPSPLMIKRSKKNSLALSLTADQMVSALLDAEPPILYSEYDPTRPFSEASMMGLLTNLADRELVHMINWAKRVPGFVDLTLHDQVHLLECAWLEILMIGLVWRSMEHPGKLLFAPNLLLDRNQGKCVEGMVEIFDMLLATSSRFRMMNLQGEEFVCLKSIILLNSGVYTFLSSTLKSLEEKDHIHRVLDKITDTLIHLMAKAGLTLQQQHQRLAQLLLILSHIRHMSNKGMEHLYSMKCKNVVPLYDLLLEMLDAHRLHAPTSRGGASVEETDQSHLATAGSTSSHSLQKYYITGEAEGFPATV

[4] = biological target: anti-estradiol mAb clone 15; assay: Competitive immunoassay: inhibition of binding of labeled E2 (estradiol ovalbumin europium conjugate) to anti-E2 clone 15; parameters: species or system mouse; details: for IC50: Table 5, estradiol ovalbumin europium conjugate; for inhibition of the binding of estradiol ovalbumin europium conjugate to anti-E2 mAb clone 15 relative to peptides 1 and 2: compared with the linear or cyclic peptides 1 and 2; for inhibition of binding of estradiol ovalbumin europium conjugate to anti-estradiol mAb clone 15: text summary of Table 4
Source text: […]. The linear peptide 1 is 15-amino acid long. We further explored the possibility whether smaller peptides derived from peptide 1 may have antibody binding activity and receptor binding activity. In order to find out the minimum amino acid sequence required in the linear peptide 1 for antibody and receptor binding, several peptides with varying length of from 4 to 14 amino acids long were synthesized, and were first evaluated in terms of binding to anti-estradiol (E2) mAb clone 15. The peptides showing similar or better antibody binding activity than the linear peptide 1 were further evaluated in terms of binding to ERα and β.

[5] = immature female rats, four hours after treatment, estradiol 5 μg/rat, peptides and raloxifene 0.5 mg/rat, mean ± S.E.M., n=15
[6] = Table 5, read-out: IC50 to ER α

| IC50 to ERβ [2] | recognition of / binding activity to estrogen receptor β [2] | IC50 to ER α ([3]; Table 5) | recognition of / binding activity to estrogen receptor α [3] | IC50 [4] | inhibition of the binding of estradiol ovalbumin europium conjugate to anti-E2 mAb clone 15 relative to peptides 1 and 2 [4] | IC50 [2] | Compound | other results |
| --- | --- | --- | --- | --- | --- | --- | --- | --- |
| – | – | – | – | – | – | – | C[C@]12CC[C@@H]3c4ccc(O)cc4CC[C@H]3[C@@H]1CC[C@@H]2O [Estradiol, estradiol] | Creatine kinase specific activity (Experimental/control), Aorta [1, 5]: 2.0 ± 0.18; Creatine kinase specific activity (Experimental/control), Diapysis [1, 5]: 1.87 ± 0.1; Creatine kinase specific activity (Experimental/control), Epipysis [1, 5]: 1.37 ± 0.07; Creatine kinase specific activity (Experimental/control), Uterus [1, 5]: 1.37 ± 0.07 |
| none | – | – | – | – | – | – | CC(C)C[C@@H]1NC(=O)[C@H](C)NC(=O)[C@@H]2CCCN2C(=O)[C@H](CC(C)C)NC(=O)[C@H](CCC(=O)O)NC(=O)[C@H](C)NC(=O)[C@@H](N)CSSC[C@@H](C(=O)O)NC(=O)[C@@H]2CCCN2C(=O)[C@@H]2CCCN2C(=O)[C@@H]2CCCN2C(=O)[C@@H]2CCCN2C(=O)[C@H](CCCCN)NC(=O)[C@H]([C@@H](C)O)NC(=O)[C@H](CCC(=O)O)NC(=O)[C@H](Cc2ccccc2)NC(=O)[C@H](Cc2ccccc2)NC(=O)[C@H](Cc2c[nH]c3ccccc23)NC(=O)[C@H](CCCNC(=N)N)NC(=O)[C@H](CCCCN)NC(=O)[C@H]([C@@H](C)O)NC(=O)[C@@H]2CCCN2C(=O)[C@H](CC(=O)O)NC1=O [Peptide 2] (HELM PEPTIDE1{C.A.E.L.P.A.L.D.P.T.K.R.W.F.F.E.T.K.P.P.P.P.C}$PEPTIDE1,PEPTIDE1,1:R3-23:R3$$$V2.0; N-terminus and C-terminus assumed) | IC50 ([3]; FIG. 2, read-out: IC50, binding to ER α): 100000 nM |
| None | did not show any binding activity | None | did not show any binding activity | 40 nM | one and half order of magnitude better | – | NCCCC[C@H](N)C(=O)N[C@@H](CO)C(=O)N[C@@H](Cc1c[nH]c2ccccc12)C(=O)N[C@@H](Cc1ccccc1)C(=O)N[C@@H](Cc1ccccc1)C(=O)N[C@@H](CCC(=O)O)C(=O)O [Peptide 19, KSWFFE] (H-KSWFFE-OH; N-terminus and C-terminus assumed) | – |
| – | recognized | – | recognized | 45 nM | one and half order of magnitude better | > 500000 nM | NCCCC[C@H](N)C(=O)N1CCC[C@H]1C(=O)N[C@@H](Cc1c[nH]c2ccccc12)C(=O)N[C@@H](Cc1ccccc1)C(=O)N[C@@H](Cc1ccccc1)C(=O)N[C@@H](CCC(=O)O)C(=O)O [Peptide 21, KPWFFE] (H-KPWFFE-OH) | – |
| – | – | – | – | – | – | < 100000 nM | CC(C)[C@H](N)C(=O)N[C@@H](CCCNC(=N)N)C(=O)N[C@@H](Cc1c[nH]c2ccccc12)C(=O)N[C@@H](Cc1ccccc1)C(=O)N[C@@H](Cc1ccccc1)C(=O)N[C@@H](CCC(=O)O)C(=O)O [Peptide 39, VRWFFE] (H-VRWFFE-OH) | IC50 [3, 6]: < 100000 nM |
| – | recognized | – | recognized | 35 nM | one and half order of magnitude better | 400000 nM | N=C(N)NCCC[C@H](NC(=O)[C@@H](N)CCCCN)C(=O)N[C@@H](Cc1c[nH]c2ccccc12)C(=O)N[C@@H](Cc1ccccc1)C(=O)N[C@@H](Cc1ccccc1)C(=O)N[C@@H](CCC(=O)O)C(=O)O [Peptide 44, KRWFFE] (H-KRWFFE-OH) | IC50 [3, 6]: 400000 nM |
| None | did not show any binding activity | None | did not show any binding activity | 6 nM | one and half order of magnitude better | – | CC(C)[C@H](N)C(=O)N1CCC[C@H]1C(=O)N[C@@H](Cc1c[nH]c2ccccc12)C(=O)N[C@@H](Cc1ccccc1)C(=O)N[C@@H](Cc1ccccc1)C(=O)N[C@@H](CCC(=O)O)C(=O)O [Peptide B33, VPWFFE] (H-VPWFFE-OH; N-terminus and C-terminus assumed) | – |
| – | recognized | – | recognized | 6 nM | one and half order of magnitude better | 100000 nM | CC(C)[C@H](N)C(=O)N[C@@H](CO)C(=O)N[C@@H](Cc1c[nH]c2ccccc12)C(=O)N[C@@H](Cc1ccccc1)C(=O)N[C@@H](Cc1ccccc1)C(=O)N[C@@H](CCC(=O)O)C(=O)O [Peptide B34, VSWFFE] (H-VSWFFE-OH) | IC50 [3, 6]: 250000 nM |
| None | did not show any binding activity | None | did not show any binding activity | 6 nM | one and half order of magnitude better | – | CC(C)[C@H](N)C(=O)N[C@@H](CCCNC(=N)N)C(=O)N[C@@H](Cc1c[nH]c2ccccc12)C(=O)N[C@@H](Cc1ccccc1)C(=O)N[C@@H](Cc1ccc(O)cc1)C(=O)N[C@@H](CCC(=O)O)C(=O)O [Peptide B35, VRWFYE] (H-VRWFYE-OH; N-terminus and C-terminus assumed) | – |
| – | recognized only the ERβ | None | – | 20 nM | one and half order of magnitude better | 250000 nM | CC[C@H](C)[C@H](N)C(=O)N[C@@H](CCCNC(=N)N)C(=O)N[C@@H](Cc1c[nH]c2ccccc12)C(=O)N[C@@H](Cc1ccccc1)C(=O)N[C@@H](Cc1ccccc1)C(=O)N[C@@H](CCC(=O)O)C(=O)O [Peptide B37, IRWFFE] (H-IRWFFE-OH) | – |
| None | did not show any binding activity | None | did not show any binding activity | 40 nM | one and half order of magnitude better | – | CC(C)C[C@H](N)C(=O)N[C@@H](CCCNC(=N)N)C(=O)N[C@@H](Cc1c[nH]c2ccccc12)C(=O)N[C@@H](Cc1ccccc1)C(=O)N[C@@H](Cc1ccccc1)C(=O)N[C@@H](CCC(=O)O)C(=O)O [Peptide B38, LRWFFE] (H-LRWFFE-OH; N-terminus and C-terminus assumed) | – |
| – | – | – | – | – | – | – | O=C(c1ccc(OCCN2CCCCC2)cc1)c1c(-c2ccc(O)cc2)sc2cc(O)ccc12 [Raloxifene, raloxifene] | Creatine kinase specific activity (Experimental/control), Aorta [1, 5]: 1.63 ± 0.04; Creatine kinase specific activity (Experimental/control), Diapysis [1, 5]: 1.75 ± 0.13; Creatine kinase specific activity (Experimental/control), Epipysis [1, 5]: 1.41 ± 0.05; Creatine kinase specific activity (Experimental/control), LV (left ventricle) [1, 5]: 1.34 ± 0.11; Creatine kinase specific activity (Experimental/control), Uterus [1, 5]: 0.99 ± 0.17; blocking of the increase in CK activity caused by estradiol or peptides 1 and 2 ([1]; rats treated with combination with raloxifene): blocked in all the tissues with the exception of the epiphysis |
| – | – | – | did not show any inhibition | – | – | – | WFFE [Peptide 46] | – |

| Compound | IC50 to ERβ [2] | recognition of / binding activity to estrogen receptor β [2] | IC50 to ER α ([3]; Table 5) | recognition of / binding activity to estrogen receptor α [3] | IC50 [4] | inhibition of the binding of estradiol ovalbumin europium conjugate to anti-E2 mAb clone 15 relative to peptides 1 and 2 [4] | IC50 [2] | other results |
| --- | --- | --- | --- | --- | --- | --- | --- | --- |
| C[C@H](N)C(=O)N[C@@H](CCCNC(=N)N)C(=O)N[C@@H](Cc1c[nH]c2ccccc12)C(=O)N[C@@H](Cc1ccccc1)C(=O)N[C@@H](Cc1ccccc1)C(=O)N[C@@H](CCC(=O)O)C(=O)O [Peptide A-43, ARWFFE] (H-ARWFFE-OH) | None | not β | – | recognized only the estrogen receptor α | 40 nM | one and half order of magnitude better | – | inhibition of binding of estradiol ovalbumin europium conjugate to anti-estradiol mAb clone 15 [4]: showed inhibition |
| C[C@H](NC(=O)[C@@H](N)CCCCN)C(=O)N[C@@H](Cc1c[nH]c2ccccc12)C(=O)N[C@@H](Cc1ccccc1)C(=O)N[C@@H](Cc1ccccc1)C(=O)N[C@@H](CCC(=O)O)C(=O)O [Peptide A-44, KAWFFE] (H-KAWFFE-OH) | – | recognized | – | recognized | 40 nM | one and half order of magnitude better | 250000 nM | IC50 [3, 6]: 250000 nM; inhibition of binding of estradiol ovalbumin europium conjugate to anti-estradiol mAb clone 15 [4]: showed inhibition |

— US20050049186A1, “Peptides mimicking the biological activity of steroid hormones and their uses” (priority 2000, published 2005)
